Test results taken from patent US9926293B2, “Multivalent RAS binding compounds” (THE TRUSTEES OF COLUMBIA UNIVERSITY IN THE CITY OF NEW YORK, priority 2014, dated 2018).

Key:
[1] = tested on: primary T-ALL cells with mutant NRAS (G13V and G13D); assay: Viability of patient-derived T-ALL samples cultured in vitro, mutant NRAS; type: cell-based; details: Homo sapiens, 72 hours, relative to vehicle
Method: Primary Cell Co-Culture and In Vitro Cell Viability Assays.
Cells were harvested 72 hours after treatment and analyzed cell viability using the BD cell viability kit with liquid counting beads (BD Bioscience) gating out stroma cells (GFP+), dead cells and particles (PI+). We acquired data using a FACSCanto II flowcytometer (BD Bioscience) and analyzed it using FlowJo software (Tree Star, Inc.). Viability data is represented as % relative to vehicle treatment.

[2] = tested on: KRAS^LSLG12D; p53^fl/fl; Pdx1-Cre pancreatic tumors; assay: KP^f/fC mouse study; type: in vivo; details: for toxicity: 30 mg/kg once daily i.p.
Method: KRAS^LSLG12D; p53^fl/fl; Pdx1-Cre (KP^F/FC) mice have been previously described (Bardeesy et al., 2006). Animals were housed in a barrier facility and monitored daily prior to enrollment on studies. All experiments were carried out in compliance with established IACUC guidelines of Columbia University.
Paraffin embedded samples were sectioned at […] and mounted on positively charged sample slides. These slides were heated at 60° C. for 15-30 minutes and subsequently rehydrated by standard protocols. Unmasking was performed in 10 mM citrate buffer, pH 6 for 5 minutes in a pressure cooker at high temperature, followed by a peroxidase quench in 3% hydrogen peroxide for 20 minutes. Blocking was carried out using 1.5% horse serum and 2% animal free blocker (Vector Labs) in TBS-T for 1 hour at room temperature. Slides were incubated with primary antibody (cleaved caspase-3, catalog no. 9664; ERK, catalog no. 4695; pERK, catalog no. 4376. All antibodies from Cell Signaling) overnight at 4° C. Slides were then allowed to equilibrate to room temperature prior to washing with TBS-T and incubation with secondary antibody (ImmPress polymer reagent, Vector Labs). Signal was developed with ImmPACT DAB Peroxidase Substrate (Vector Labs). Slides were counterstained with hematoxylin for 30 seconds. For quantification of cleaved-caspase 3 staining, all available 40× fields on three separate sections of biopsy samples and twenty total 40× fields from two separate sections of necropsy samples were analyzed for each study mouse.
Mice were monitored closely for changes in health status and were sacrificed after 5 days on study or once they met endpoint criteria in keeping with IACUC standards.

GppNHp-loaded KRASG12D = target: T1, GppNHp-loaded KRASG12D (Homo sapiens, UniProt P01116, G12D); assay: Isothermal titration calorimetry; type: binding; details: ITC, 25° C.; read-out: dissociation constant
T1 construct: made in house; host or cells: Escherichia coli BL21-Gold (DE3)
Method: Isothermal Titration Calorimetry (ITC)
All ITC experiments were carried out at 25° C. on a MicoCal Auto-ITC200 system (GE Healthcare).
450 μL of the compound solution was loaded into the cell at 250 μM in ITC buffer (25 mM Tris pH 7.4, 1 mM TCEP, 100 mM NaCl, 5 mM MgCl2, 0.05% Tween-20) with a final DMSO concentration at 1.25% (v/v). KRAS^G12D⋅GppNHp was buffer exchanged into same ITC buffer using Amicon Ultra 10 kDa size exclusion filter spin columns (buffer replaced with ITC buffer four times). Prior to loading 130 μL of KRAS^G12D⋅GppNHp into the syringe at 2.5 mM, DMSO was added to match the amount DMSO present in the cell. ITC titration experiments were carried out at 25° C. with 19 injections, 2 μl per injection, and 180 seconds between each injection. Reference cell power was set to 5 μcal/sec. A control experiment was performed where ITC buffer was titrated into compound 31MEW44 alone to account for heat released due to dilution. This background was subtracted from test data before the final dissociation constant was obtained. Data were analyzed using the one-site binding model in Origin 7.1 software. The dissociation constant, Kd, was calculated according to equation Kd=1/Ka. Gibbs free energy, ΔG, was calculated from the equation ΔG=−RTInKa. −TΔS was calculated from the equation ΔG=ΔH−TΔS. All other parameters, Ka, n, ΔH, were determined directly from the titration data.

GppNHp-loaded RHEB = GppNHp-loaded RHEB (Homo sapiens, UniProt Q15382); assay: Microscale thermophoresis on GppNHp-loaded RHEB; type: binding; details: MST, up to 190 μM
Chain of GppNHp-loaded RHEB (Q15382 whole entry): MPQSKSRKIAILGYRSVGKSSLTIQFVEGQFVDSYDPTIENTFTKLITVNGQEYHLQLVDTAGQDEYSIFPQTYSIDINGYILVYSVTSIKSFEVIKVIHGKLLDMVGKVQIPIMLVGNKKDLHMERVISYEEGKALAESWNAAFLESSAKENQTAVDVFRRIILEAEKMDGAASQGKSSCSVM
Method: (§1) KRAS^G12D (250 μM) in 25 mM HEPES, 100 mM sodium chloride, 2 mM TCEP with 20 mM EDTA and 1 mM GppNHp was shaken at 220 rpm at 30° C. to remove the endogenous nucleotide, The solution was placed on ice for 2 minutes prior to the addition of 65 mM MgCl2. After an additional 10 minutes incubation on ice, 200 uL of a 10 uM solution of KRAS^G12D was combined with 200 uL of a 20 uM solution of NT-647-NHS-ester dye (from a 652.4 μM stock). The protein/dye mixture was rotated at 4° C. for 30 minutes, before being separated from the excess dye and buffer exchanged into 25 mM Tris, 100 mM sodium chloride, 2 mM TCEP, and 5 mM MgCl2 via a nap-5 column. The test compounds were arrayed across a 16-point dilution series consisting of 1.5% DMSO with 25 mM Tris, 100 mM NaCl, 2 mM TCEP, 5 mM MgCl2 and 0.05% tween-20. Thermophoretic movement of the fluorescently labeled protein with the inhibitors was performed using a Monolith NT.115 (Nanotemper Technologies). RALA and RHOA were purchased commercially from Abcam (RALA CN:ab102555, RHOA CN:ab101594).
To provide evidence that the compound indeed was selective for RAS GTPases, MST binding measurements were performed on GppNHp-loaded RHEB, RHOA and RALA (FIG. 14J).

KRAS^G12D with GDP = target: T2, KRAS^G12D with GDP (Homo sapiens, UniProt P01116, G12D); assay: Microscale thermophoresis, GDP-loaded KRAS^G12D; type: binding
T2 construct: made in house; host or cells: Escherichia coli BL21-Gold (DE3)
Method: as §1, with “KRAS^G12D (250 μM) in 25 mM HEPES, 100 mM sodium chloride, 2 mM TCEP with 20 mM EDTA and 1 mM GppNHp was shaken at 220 rpm at 30° C. to remove the endogenous nucleotide, The solution was placed on ice for 2 minutes prior to the addition of 65 mM MgCl2.” left out

[3] = pre- vs post-treatment tumor samples, 30 mg/kg i.p.

For `NC1(C(=O)NCCCn2cc(-c3ccc(OC(F)(F)F)cc3)c3cc(CN4CCN(Cc5c(Cl)cccc5Cl)CC4)ccc32)CCNCC1` [Compound 31MEW44, 4-amino-N-(3-(5-((4-(2,6-dichlorobenzyl)piperazin-1-yl)methyl)-3-(4-(trifluoromethoxy)phenyl)-1H-indol-1-yl)propyl)piperidine-4-carboxamide], the viability at 5 µM [1] was 20 to 40%, the toxicity ([2]; KP^f/fC mice) was “toxicity was observed” and the “cleaved caspase-3 in tumor” value ([2]; immunohistochemistry, 30 mg/kg i.p.) was “modest increase in cleaved caspase-3”. For the same molecule, the “phosphorylated AKT (S473) in tumor” value [2, 3] was “substantial decrease”, the “phosphorylated ERK1/2 in tumor” value [2, 3] was “substantial decrease” and the toxicity ([2]; wild-type mice) was “not in wild-type mice”. The Kd (GppNHp-loaded KRASG12D) was 34 µM, the binding (GppNHp-loaded RHEB) was “no binding was observed” and the loss in affinity (KRAS^G12D with GDP; GDP-loaded vs GppNHp-loaded KRAS^G12D) was “five-fold”. It also gave a Kd (KRAS^G12D with GDP; MST, GDP-loaded KRAS^G12D) of 45 µM.
